Values quoted from earlier work in patent publication US8022220B2, “Process for production of piperidine derivatives” (Albany Molecular Research, Inc., priority 1995, dated 2011).

Test system: delayed rectifier potassium current
Conditions: concentrations up to 5 μM; isolated feline ventricular myocytes

SMILES: CC(C)(C(=O)O)c1ccc(C(O)CCCN2CCC(C(O)(c3ccccc3)c3ccccc3)CC2)cc1 (stereo not drawn) [terfenadine carboxylic acid metabolite, 4-[4-[4-(hydroxydiphenylmethyl)-1-piperidinyl]-1-hydroxybutyl]-α-α-dimethylphenylacetic acid]
- effect on the potassium current: no significant effect
